# Data reported in article PMC4756048 (Clinical Pharmacokinetics, 2015).
# Read-outs that look alike come from different tables or passages of the source.
# Assays:
# CYP1A2 = conditions: caffeine; cited from earlier work
# CYP3A (intestinal) = conditions: cited from earlier work
# [1] = biological target: T1, sodium taurocholate cotransporting polypeptide (NTCP) (Homo sapiens, UniProt Q14973); assay: In vitro transporter inhibition; type: in vitro ADME; conditions: data on file
# T1 sequence (Q14973 1-349): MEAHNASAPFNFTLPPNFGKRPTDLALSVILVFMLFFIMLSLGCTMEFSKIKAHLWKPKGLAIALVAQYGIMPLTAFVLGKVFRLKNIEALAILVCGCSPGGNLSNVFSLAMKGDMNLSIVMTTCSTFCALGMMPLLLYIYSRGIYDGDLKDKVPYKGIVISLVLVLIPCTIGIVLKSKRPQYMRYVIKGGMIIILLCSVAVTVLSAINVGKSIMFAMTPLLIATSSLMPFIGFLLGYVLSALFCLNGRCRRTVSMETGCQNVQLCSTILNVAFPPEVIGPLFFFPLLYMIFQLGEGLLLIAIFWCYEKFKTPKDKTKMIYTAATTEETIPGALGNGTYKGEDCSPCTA
# cathepsin A = biological target: T2, cathepsin A (Homo sapiens, UniProt P10619); assay: In vitro cathepsin A inhibition; type: biochemical; conditions: data on file
# T2 sequence (P10619 29-480): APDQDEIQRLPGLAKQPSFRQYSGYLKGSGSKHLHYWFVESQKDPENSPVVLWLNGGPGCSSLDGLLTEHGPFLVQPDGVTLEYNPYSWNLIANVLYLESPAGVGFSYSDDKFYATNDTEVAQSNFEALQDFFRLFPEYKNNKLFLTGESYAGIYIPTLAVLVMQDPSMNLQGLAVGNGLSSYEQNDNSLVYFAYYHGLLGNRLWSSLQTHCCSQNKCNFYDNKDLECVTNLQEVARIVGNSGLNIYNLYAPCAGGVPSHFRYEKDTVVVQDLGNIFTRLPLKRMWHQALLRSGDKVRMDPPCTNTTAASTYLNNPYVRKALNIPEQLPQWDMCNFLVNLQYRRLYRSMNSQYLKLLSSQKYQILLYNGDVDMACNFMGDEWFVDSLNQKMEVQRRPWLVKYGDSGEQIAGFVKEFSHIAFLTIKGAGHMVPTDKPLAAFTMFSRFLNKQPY
# [2] = type: in vivo, human; conditions: data on file
# [3] = cited from earlier work
# plasma proteins = conditions: largely to albumin; cited from earlier work
# CYP2A6 = conditions: in vitro; cited from earlier work
# CYP2C8 = conditions: in vitro; cited from earlier work
# CYP2D6 = conditions: in vitro; cited from earlier work
# CYP2C19 = conditions: in vitro; cited from earlier work
# CYP3A [4] = conditions: in vitro; cited from earlier work
# OATP1B1 [5] = conditions: in vitro; cited from earlier work
# MRP2 [6] = conditions: in vitro; cited from earlier work
# [7] = system: bile salt export pump (BSEP); conditions: in vitro; cited from earlier work
# P-gp [8] = conditions: in vitro; cited from earlier work
# BCRP = conditions: in vitro; cited from earlier work
# OATP1B3 [9] = conditions: in vitro; data on file; cited from earlier work
# OATP1B1 [10] = conditions: in vitro; cited from earlier work; remark: listed apart in the source
# OATP1B3 [11] = conditions: in vitro; cited from earlier work
# MRP2 [12] = conditions: in vitro; data on file; cited from earlier work
# P-gp [13] = conditions: in vitro; data on file; cited from earlier work
# [14] = system: breast cancer resistance protein (BCRP); conditions: in vitro; data on file; cited from earlier work
# CYP3A [15] = conditions: in vitro; cited from earlier work; remark: listed apart in the source
# [16] = cited from earlier work; remark: listed apart in the source
# [17] = system: CatA and carboxylesterase (CES) 1; conditions: cited from earlier work
# [18] = oral midazolam 0.075 mg/kg, simeprevir 150 mg, fed, 16 healthy subjects, least squares mean ratio (90 % CI)
# [19] = interim analysis, simeprevir 150 mg once daily
# [20] = interim analysis, simeprevir 150 mg once daily, vs historical data on simeprevir alone
# [21] = vs subjects with normal renal function
# [22] = simeprevir 150 mg once daily + erythromycin 500 mg three times daily, days 1–7, fed, 24 healthy subjects
# [23] = simeprevir 200 mg once daily + ritonavir 100 mg twice daily, fed, 12 healthy male subjects
smiles,measurement,setting,value
"Cn1c(=O)c2c(ncn2C)n(C)c1=O [Caffeine, caffeine]",increase in exposure with coadministration of simeprevir,CYP1A2,12%
"Cc1ncc2n1-c1ccc(Cl)cc1C(c1ccccc1F)=NC2 [Midazolam, midazolam]",AUClast ratio of probe with vs without simeprevir,CYP3A (intestinal); [18],1.45 (1.35–1.57)
same,Cmax ratio of probe with vs without simeprevir,CYP3A (intestinal); [18],1.31 (1.19–1.45)
same,increase in exposure with coadministration of simeprevir,CYP3A (intestinal); oral midazolam,31%
COc1ccc2c(O[C@@H]3C[C@H]4C(=O)N[C@]5(C(=O)NS(=O)(=O)C6CC6)C[C@H]5/C=C\CCCCN(C)C(=O)[C@@H]4C3)cc(-c3nc(C(C)C)cs3)nc2c1C [simeprevir],inhibition of NTCP,[1],inhibitor
same,inhibition of cathepsin A,cathepsin A,no clinically relevant inhibition
same,"AUC24h of simeprevir, historical data in the absence of cyclosporine",[2],"45,202 ng·h/mL"
same,"Cmax of simeprevir, historical data in the absence of cyclosporine",[2],3235 ng/mL
same,AUC24h of simeprevir in subjects receiving cyclosporine,"[2]; day 14, simeprevir 150 mg once daily","262,618 ng·h/mL"
same,Cmax of simeprevir in subjects receiving cyclosporine,"[2]; day 14, simeprevir 150 mg once daily, n = 9","15,321 ng/mL"
same,AUC24h of simeprevir in subjects receiving tacrolimus,[2]; [19],"83,808 ng·h/mL"
same,Cmax of simeprevir in subjects receiving tacrolimus,[2]; [19],5780 ng/mL
same,increase in AUC24h of simeprevir with tacrolimus,[2]; [20],85%
same,increase in Cmax of simeprevir with tacrolimus,[2]; [20],79%
same,mean terminal elimination half-life,[3]; HCV-infected subjects (n = 6),approximately 41 h
same,increase in AUC with food,[3]; high-fat/high-caloric breakfast,61%
same,AUC in subjects infected with HCV relative to uninfected subjects,"[3]; human, in vivo",2–3 times
same,increase in exposure in moderate hepatic impairment,[3]; non-HCV-infected subjects vs matched healthy controls,approximately 2 fold
same,increase in exposure in severe compared with moderate hepatic impairment,[3]; non-HCV-infected subjects,approximately 2 fold
same,increase in AUC with food,[3]; normal-caloric breakfast,69%
same,time to steady state,[3]; once-daily dosing,7 days
same,time of maximum plasma concentration (Cmax) postdose,[3]; oral,4 to 6 h
same,dose proportionality of Cmax and AUC,[3]; repeated doses between 75 mg and 200 mg daily,more than dose proportionally
same,mean terminal elimination half-life,[3]; subjects without HCV infection,10 to 13 h
same,increase in AUC24h in severe renal impairment,[3]; [21],62%
same,increase in Cmax in severe renal impairment,[3]; [21],34%
same,bound to plasma proteins,plasma proteins,> 99.9%
same,inhibition of CYP2A6,CYP2A6,moderate inhibitor
same,inhibition of CYP2C8,CYP2C8,moderate inhibitor
same,inhibition of CYP2D6,CYP2D6,moderate inhibitor
same,inhibition of CYP2C19,CYP2C19,weak inhibitor
same,inhibition of CYP3A,CYP3A [4],weak inhibitor
same,inhibition of OATP1B1,OATP1B1 [5],inhibitor
same,inhibition of MRP2,MRP2 [6],inhibitor
same,inhibition of BSEP,[7],inhibitor
same,inhibition of P-gp,P-gp [8],inhibitor
same,inhibition of BCRP,BCRP,inhibitor
same,inhibition of OATP1B3,OATP1B3 [9],inhibitor
same,hepatic uptake by OATP1B1,OATP1B1 [10],mediate hepatic uptake
same,hepatic uptake by OATP1B3,OATP1B3 [11],mediate hepatic uptake
same,substrate of MRP2,MRP2 [12],substrate
same,substrate of P-gp,P-gp [13],substrate
same,substrate of BCRP,[14],substrate
same,substrate of CYP3A,CYP3A [15],substrate
same,fold increase in mean AUC24h of simeprevir with erythromycin,[16]; [22],7.47 fold
same,fold increase in mean Cmax of simeprevir with erythromycin,[16]; [22],4.53 fold
same,fold increase in mean Cmin of simeprevir with erythromycin,[16]; [22],12.74 fold
same,"fold increase in AUC24h of simeprevir with ritonavir, multiple doses",[16]; [23],7.18 fold
same,"fold increase in Cmax of simeprevir with ritonavir, multiple doses",[16]; [23],4.70 fold
same,"fold increase in Cmin of simeprevir with ritonavir, multiple doses",[16]; [23],14.35 fold
CC(C)OC(=O)[C@H](C)N[P@](=O)(OC[C@H]1O[C@@H](n2ccc(=O)[nH]c2=O)[C@](C)(F)[C@@H]1O)Oc1ccccc1 [sofosbuvir],conversion to metabolite GS-331007,[17],> 90%
